Reference: US20220386606A1, “SPECIFICALLY SUBSTITUTED 3-PHENYL-5-SPIROCYCLOPENTYL-3-PYRROLIN-2-ONES AND THEIR USE AS HERBICIDES” (Bayer Aktiengesellschaft, priority 2019, published 2022)

Experiments:
ALOMY [1] = assay: Pre-emergence herbicidal action against ALOMY; format: in vivo, Alopecurus myosuroides; details: 320 g/ha, scored visually after 3 weeks vs untreated controls
Procedure, shortened: (§1)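 Visual percent damage, rated 3 weeks after treatment against untreated plants (0% like control, 100% plants dead). Compounds, as wettable powders or emulsion concentrates, were sprayed pre-emergence onto soil covering seeds sown in sandy loam, at 600 to 800 L/ha water with 0.2% wetting agent; pots kept in greenhouse.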

AVEFA [2] = assay: Pre-emergence herbicidal action against AVEFA; format: in vivo, Avena fatua; details: 320 g/ha, scored visually after 3 weeks vs untreated controls
Procedure, shortened: as §1

DIGSA [3] = assay: Pre-emergence herbicidal action against DIGSA; format: in vivo, Digitaria sanguinalis; details: 320 g/ha, scored visually after 3 weeks vs untreated controls
Procedure, shortened: as §1

ECHCG [4] = assay: Pre-emergence herbicidal action against ECHCG; format: in vivo, Echinochloa crus-galli; details: 320 g/ha, scored visually after 3 weeks vs untreated controls
Procedure, shortened: as §1

LOLRI [5] = assay: Pre-emergence herbicidal action against LOLRI (Table 8, titled post-emergence at 320 g/ha); format: in vivo, Lolium rigidum; details: table stands in the pre-emergence section
Procedure, shortened: as §1

SETVI [6] = assay: Pre-emergence herbicidal action against SETVI; format: in vivo, Setaria viridis; details: 320 g/ha, scored visually after 3 weeks vs untreated controls
Procedure, shortened: as §1

ABUTH [7] = assay: Pre-emergence herbicidal action against ABUTH; format: in vivo, Abutylon threophrasti; details: 320 g/ha
Procedure, shortened: as §1

AMARE [8] = assay: Pre-emergence herbicidal action against AMARE; format: in vivo, Amaranthus retroflexus; details: 320 g/ha
Procedure, shortened: as §1

MATIN = assay: Pre-emergence herbicidal action against MATIN; format: in vivo; details: 320 g/ha
Procedure, shortened: as §1

POLCO = assay: Pre-emergence herbicidal action against POLCO; format: in vivo, Polygonum convolvulus; details: 320 g/ha
Procedure, shortened: as §1

VIOTR [9] = assay: Pre-emergence herbicidal action against VIOTR; format: in vivo, Viola tricolor; details: 320 g/ha
Procedure, shortened: as §1

VERPE [10] = assay: Pre-emergence herbicidal action against VERPE; format: in vivo, Veronica persica; details: 320 g/ha
Procedure, shortened: as §1

ALOMY [11] = assay: Post-emergence herbicidal action against ALOMY; format: in vivo, Alopecurus myosuroides; details: 80 g/ha, visual assessment after about 3 weeks
Procedure, shortened: (§2)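 Greenhouse post-emergence test; one-leaf stage (2–3 wk post-sowing), sandy loam. Spray: WP/EC in water, 600–800 l/ha, 0.2% wetting agent, onto green parts. Visual rating ~3 wk later, % vs untreated (100% = dead, 0% = like control).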

AVEFA [12] = assay: Post-emergence herbicidal action against AVEFA; format: in vivo, Avena fatua; details: 80 g/ha, visual assessment after about 3 weeks
Procedure, shortened: as §2

DIGSA [13] = assay: Post-emergence herbicidal action against DIGSA; format: in vivo, Digitaria sanguinalis; details: 80 g/ha, visual assessment about 3 weeks after treatment vs untreated controls
Procedure, shortened: as §2

ECHCG [14] = assay: Post-emergence herbicidal action against ECHCG; format: in vivo, Echinochloa crus-galli; details: 80 g/ha, visual assessment about 3 weeks after treatment vs untreated controls
Procedure, shortened: as §2

LOLRI [15] = assay: Post-emergence herbicidal action against LOLRI; format: in vivo, Lolium rigidum; details: 80 g/ha, visual assessment about 3 weeks after treatment vs untreated controls
Procedure, shortened: as §2

SETVI [16] = assay: Post-emergence herbicidal action against SETVI; format: in vivo, Setaria viridis; details: 80 g/ha, visual assessment about 3 weeks after treatment vs untreated controls
Procedure, shortened: as §2

ABUTH [17] = assay: Post-emergence herbicidal action against ABUTH; format: in vivo, Abutylon threophrasti; details: 80 g/ha, visual assessment about 3 weeks after treatment vs untreated controls
Procedure, shortened: as §2

AMARE [18] = assay: Post-emergence herbicidal action against AMARE; format: in vivo, Amaranthus retroflexus; details: 80 g/ha, visual assessment about 3 weeks after treatment vs untreated controls
Experimental: (§3) Seeds of monocotyledonous and dicotyledonous weed and crop plants are laid out in sandy loam soil in wood-fiber pots, covered with soil and cultivated in a greenhouse under good growth conditions. 2 to 3 weeks after sowing, the test plants are treated at the one-leaf stage. The compounds of the invention, formulated in the form of wettable powders (WP) or as emulsion concentrates (EC), are then sprayed onto the green parts of the plants as aqueous suspension or emulsion at a water application rate equating to 600 to 800 l/ha with addition of 0.2% wetting agent. After the test plants have been left to stand in the greenhouse under optimal growth conditions for about 3 weeks, the action of the preparations is assessed visually in comparison to untreated controls (herbicidal action in percent (%): 100% activity=the plants have died, 0% activity=like control plants).

VERPE [19] = assay: Post-emergence herbicidal action against VERPE; format: in vivo, Veronica persica; details: 80 g/ha, visual assessment about 3 weeks after treatment vs untreated controls
Experimental: as §3

VIOTR [20] = assay: Post-emergence herbicidal action against VIOTR; format: in vivo, Viola tricolor; details: 80 g/ha, visual assessment about 3 weeks after treatment vs untreated controls
Experimental: as §3

HORMU = assay: Post-emergence herbicidal action against HORMU; format: in vivo, Hordeum murinum; details: 80 g/ha, visual assessment about 3 weeks after treatment vs untreated controls
Procedure, shortened: as §2

Row | Compound | Pre-emergence action against ALOMY in % (ALOMY [1]) [%] | Pre-emergence action against AVEFA in % (AVEFA [2]) [%] | Pre-emergence action against DIGSA in % (DIGSA [3]) [%] | Pre-emergence action against ECHCG in % (ECHCG [4]) [%] | Pre-emergence herbicidal action against LOLRI in % (LOLRI [5]) [%] | Pre-emergence action against SETVI in % (SETVI [6]) [%] | Pre-emergence action against ABUTH in % (ABUTH [7]) [%] | Pre-emergence action against AMARE in % (AMARE [8]) [%] | Pre-emergence action against MATIN in % (MATIN) [%] | Pre-emergence action against POLCO in % (POLCO) [%] | Pre-emergence action against VIOTR in % (VIOTR [9]) [%] | Pre-emergence action against VERPE in % (VERPE [10]) [%] | Post-emergence action against ALOMY in % (ALOMY [11]) [%] | Post-emergence action against AVEFA in % (AVEFA [12]) [%] | Post-emergence action against DIGSA in % (DIGSA [13]) [%] | Post-emergence action against ECHCG in % (ECHCG [14]) [%] | Post-emergence action against LOLRI in % (LOLRI [15]) [%] | Post-emergence action against SETVI in % (SETVI [16]) [%] | Post-emergence action against ABUTH in % (ABUTH [17]) [%] | Post-emergence action against VERPE in % (VERPE [19]) [%] | further results
1 | CC#Cc1cc(C)c(C2=C(O)C3(CCC(COCC)C3)NC2=O)c(Cl)c1 (stereo not shown) [Example I-02] | 100 | 100 | 100 | 100 | 100 | 100 | 100 | 100 | 90 | 100 | 100 | 90 | 100 | 90 | 90 | 100 | 100 | 100 | 80 | 90 | Post-emergence action against AMARE in % (AMARE [18]): 80%
2 | CC#Cc1cc(C)c(C2=C(O)C3(CCC(COCC)C3)NC2=O)c(OC)c1 (stereo not shown) [Example I-30] | 100 | 90 | 100 | 100 | 100 | 100 |  | 100 | 90 |  | 100 |  | 90 | 80 | 100 | 100 | 100 |  | 80 | 80 | 
3 | CC#Cc1cc(C)c(C2=C(O)C3(CCC(COCC)C3)NC2=O)c(OC)c1 (stereo not shown) [Example I-32] | 100 | 90 | 100 | 100 | 100 | 100 |  |  |  |  | 100 |  | 100 | 100 | 100 | 100 | 100 |  | 80 | 80 | Post-emergence action against VIOTR in % (VIOTR [20]): 80%
4 | CC#Cc1cc(Cl)c(C2=C(OC(=O)OCC)C3(CCC(COCC)C3)NC2=O)c(CC)c1 (stereo not shown) [Example P-21] |  |  |  |  |  |  |  |  |  |  |  |  | 100 | 100 | 100 | 100 | 100 | 100 |  | 80 | Post-emergence action against HORMU in % (HORMU): 100%
5 | CC#Cc1cc(C)c(C2=C(OC(=O)OCC)C3(CCC(COCC)C3)NC2=O)c(Cl)c1 (stereo not shown) [Example P-28] | 100 | 100 | 100 | 100 | 100 | 100 | 90 | 100 | 90 | 80 | 100 | 100 | 100 | 90 | 100 | 100 | 100 | 100 |  | 80 | 
6 | CC#Cc1cc(C)c(C2=C(OC(=O)C(C)C)C3(CCC(COCC)C3)NC2=O)c(Cl)c1 (stereo not shown) [Example P-29] | 100 | 100 | 100 | 100 | 100 | 100 | 80 | 100 | 90 | 90 | 100 | 100 | 100 | 90 | 100 | 100 | 100 | 100 |  | 80 | 
7 | CC#Cc1cc(C)c(C2=C(OC(=O)OCC)C3(CCC(COC)C3)NC2=O)c(Br)c1 (stereo not shown) [Example P-30] | 100 | 100 | 100 | 100 | 100 | 100 | 80 | 100 |  | 80 | 100 | 80 | 100 | 90 | 100 | 100 | 100 | 100 | 80 | 80 | 
8 | CC#Cc1cc(C)c(C2=C(OC(=O)OCC)C3(CCC(COC)C3)NC2=O)c(F)c1 (stereo not shown) [Example P-52] | 100 | 90 | 100 | 100 | 100 | 100 |  | 80 |  | 80 | 90 |  | 100 | 90 | 100 | 100 | 100 |  | 80 | 80 | Post-emergence action against AMARE in % (AMARE [18]): 80%
9 | CC#Cc1cc(C)c(C2=C(OC(=O)OCC)C3(CCC(COCC)C3)NC2=O)c(F)c1 (stereo not shown) [Example P-54] | 100 | 90 | 100 | 100 | 100 | 100 |  | 100 |  | 80 | 100 | 80 | 100 | 100 | 100 | 100 | 100 |  | 80 | 80 | 
